Assay results from PMC7865555, “Mechanistic Studies of the Antiallergic Activity of Phyllanthus amarus Schum. & Thonn. and Its Compounds” (Molecules, 2021).
Counter-ions that a name gives are not always drawn.

System: not listed separately
Assay: Cell viability (MTT) assay on RBL-2H3 cells
Assay type: cell-based, rat
Conditions: rat, RBL-2H3 cells; RBL-2H3, 2.5 µg/mL
Protocol: (§1) RBL-2H3 cells were obtained from the Japanese Collection of Research Bioresources (JCRB) cell bank with a cell number of JCRB0023. The cells were cultured in enriched media (MEM containing 10% FBS and 1% penicillin-streptomycin (10 000 U/mL)). Once the cells reaching passage 3 (P3) with 80% confluency and showing stable growth and morphology, the cells were used for the bioassays. Only cells from passage 3 (P3) to passage 5 (P5) were used for the bioassays’ studies.
(§2) The cell viability assay was conducted as reported by Shahari, et al.. RBL-2H3 cells were seeded in 96-well plates in 100 µL at the concentration of 5 × 10^5 /mL. […] The cells were incubated for 4 h. 10 µL of MTT (5 mg/mL in PBS buffer) was added to the mixture and was incubated for 4 h at 37 °C. Upon the appearance of purple formazan crystal, the media was removed and 100 µL of DMSO was added to the well plates to dissolve the crystal. After 10 min of shaking the well plates on a shaker, the absorbance was immediately measured using a microplate reader at 570 nm.
`CN1CCC(=C2c3ccccc3CC(=O)c3sccc32)CC1` [Ketotifen fumarate, reference compound] showed a viability at 4 h, 2.5 µg/mL of 91.9 ± 6.16%.

Same assay, conditions: rat, RBL-2H3 cells; RBL-2H3, 5 µg/mL
`CN1CCC(=C2c3ccccc3CC(=O)c3sccc32)CC1` [Ketotifen fumarate, reference compound] showed a viability at 4 h, 5 µg/mL of 90.1 ± 3.89%.

Same assay, conditions: rat, RBL-2H3 cells; RBL-2H3, 10 µg/mL
Work on `CN1CCC(=C2c3ccccc3CC(=O)c3sccc32)CC1` [Ketotifen fumarate, reference compound] yielded a viability at 4 h, 10 µg/mL of 86.8 ± 6.47%.

Same assay, conditions: rat, RBL-2H3 cells; RBL-2H3, 25 µg/mL
Work on `CN1CCC(=C2c3ccccc3CC(=O)c3sccc32)CC1` [Ketotifen fumarate, reference compound] yielded a viability at 4 h, 25 µg/mL of 87.4 ± 1.17%.

Same assay, conditions: rat, RBL-2H3 cells; RBL-2H3, 50 µg/mL
With `CN1CCC(=C2c3ccccc3CC(=O)c3sccc32)CC1` [Ketotifen fumarate, reference compound] the viability at 4 h, 50 µg/mL was 83.8 ± 4.1%.

Same assay, conditions: rat, RBL-2H3 cells; RBL-2H3, 100 µg/mL
`CN1CCC(=C2c3ccccc3CC(=O)c3sccc32)CC1` [Ketotifen fumarate, reference compound] gave a viability at 4 h, 100 µg/mL of 28.9 ± 4.87%.

System: RBL-2H3 cell line
Assay: Cell viability (MTT) assay on RBL-2H3 cells
Assay type: cell-based, rat
Conditions: RBL-2H3, maintaining approximately 70% cell viability
Protocol: as §1, §2
For `CN1CCC(=C2c3ccccc3CC(=O)c3sccc32)CC1` [Ketotifen fumarate, reference compound], the “Concentration safe on the cell” value was “below 50 µg/mL”.

System: beta-hexosaminidase release from RBL-2H3
Assay: Inhibitory effect on beta-hexosaminidase release from RBL-2H3 (IgE/DNP-BSA)
Assay type: cell-based, rat
Conditions: Rattus norvegicus, 5 µg/mL, mean ± SEM, n = 3, read-out: Inhibitory activity towards beta-hexosaminidase release
Protocol: The bioassay was conducted as reported by Abd Rani, et al.. In the concentration of 2 × 10^5 cells in 400 µL per well, RBL-2H3 cells were seeded and incubated for 2 h. After 2 h, the cells were sensitized with anti-DNP IgE at a concentration of 0.45 µg/mL in 100 µL per well. The cells were incubated overnight until 80% confluent. The cells were washed with 500 µL Siraganian buffer (119 mM of sodium chloride (NaCl), 5 mM of potassium chloride (KCl), 5.6 mM of glucose, 0.4 mM of magnesium chloride (MgCl2), 1 mM of calcium chloride (CaCl2), 25 mM of piperazine-N,N′-bis(2-ethanesulfonic acid) (PIPES), 40 mM of sodium hydroxide (NaOH), 0.1% BSA; pH 7.2) twice before were added with 160 µL of Siraganian buffer and incubated for 10 min. The cells were then treated with different concentrations of test samples in 20 µL. After 10 min of incubation, allergen, DNP-BSA at a concentration of 10 mg/mL were added to the cells. The cells were incubated for another 30 min. The supernatant (50 µL) was transferred into 96-well plates and was added immediately with 50 µL of the substrate ([…] p-nitrophenyl-N-acetyl-β-D-glucosaminide in 0.1 M citrate buffer, pH 4.5). The cells were further incubated for 1 h and the reaction was stopped using a 200 µL stop solution (0.1 M Na2CO3/NaHCO3, pH 10.0). The absorbance was measured using the microplate reader at 405 nm. The percentage of inhibition was measured using Equation (1). Control cell was assumed to have 100% beta-hexosaminidase release with allergen added without any treatment while the normal cell was assumed to have 0% beta-hexosaminidase release with cell without any allergen and treatment added to the well. The blank well consisted of the test sample. Ketotifen fumarate was used as a positive control. (1) Percentage inhibition % = (1− OD test sample−OD blank−OD normal/OD control−OD normal) × 100
`CN1CCC(=C2c3ccccc3CC(=O)c3sccc32)CC1` [Ketotifen fumarate, reference compound] showed an inhibition at 5 µg/mL of 17.7 ± 1.05%.

Same assay, conditions: Rattus norvegicus, 10 µg/mL, mean ± SEM, n = 3, read-out: Inhibitory activity towards beta-hexosaminidase release
`CN1CCC(=C2c3ccccc3CC(=O)c3sccc32)CC1` [Ketotifen fumarate, reference compound] showed an inhibition at 10 µg/mL of 22.2 ± 0.75%.

Same assay, conditions: Rattus norvegicus, 25 µg/mL, mean ± SEM, n = 3, read-out: Inhibitory activity towards beta-hexosaminidase release
In the case of `CN1CCC(=C2c3ccccc3CC(=O)c3sccc32)CC1` [Ketotifen fumarate, reference compound], the inhibition at 25 µg/mL is reported as 27.4 ± 0.58%.

System: histamine release from RBL-2H3
Assay: Inhibitory effect on histamine release from RBL-2H3 (ELISA)
Assay type: cell-based
Conditions: Rattus norvegicus, 5 µg/mL, mean ± SEM, n = 3, read-out: Inhibitory activity towards histamine release
Protocol: The bioassay was conducted as reported by Shahari, et al. and Abd Rani, et al.. In 24-well plates, 2 × 10^5 of RBL-2H3 cells were seeded in 400 µL per well. The cells were sensitized with 0.45 µg/mL anti-DNP IgE in 100 µL after two hours of incubation. The cells were incubated overnight until reaching 80% confluency. The cells were washed twice with 500 µL of enriched media before being constituted with 320 µL enriched media. After 10 min of incubation, the cells were treated with 40 µL of different concentration of test compounds and was incubated for another 10 min. The cells were treated with 20 µL of allergen, DNP-BSA (10 mg/mL), and further being incubated for another 30 min. The supernatant obtained was transferred into a microcentrifuge tube, and centrifuged for 20 min at 1000× g at 8 °C. The supernatant was transferred to the Histamine ELISA kit and the histamine quantification was conducted based on the ELISA manufacturer protocol given. The percentage of inhibition was measured using Equation (2). The control cell was assumed to have 100% histamine release with allergen added without any treatment while blank well corresponded to 0% cytokine release. Ketotifen fumarate was used as a positive control. (2) Percentage inhibition % = (1− OD test sample−OD blank/OD control−OD blank) × 100
`CN1CCC(=C2c3ccccc3CC(=O)c3sccc32)CC1` [Ketotifen fumarate, reference compound] gave an inhibition at 5 µg/mL of 3.9 ± 6.8%.

Same assay, conditions: Rattus norvegicus, 10 µg/mL, mean ± SEM, n = 3, read-out: Inhibitory activity towards histamine release
For `CN1CCC(=C2c3ccccc3CC(=O)c3sccc32)CC1` [Ketotifen fumarate, reference compound], the inhibition at 10 µg/mL was 44.7 ± 23%.

Same assay, conditions: Rattus norvegicus, 25 µg/mL, mean ± SEM, n = 3, read-out: Inhibitory activity towards histamine release
`CN1CCC(=C2c3ccccc3CC(=O)c3sccc32)CC1` [Ketotifen fumarate, reference compound] showed an inhibition at 25 µg/mL of 58.7 ± 23.2%.
